“Also recorded” adds a separate entry of the source. Read-outs that look alike come from different tables or passages of the source.
What was measured:
[1] = system: homozygous scn1Lab−/− mutants; type: in vivo, Danio rerio; conditions: for locomotor-reducing activity of functional analogs: at MTC, in most cases observed after short and long treatment; for activity in the Zebrafish model of epilepsy: following both acute and chronic application
Experimental: (§1) Zebrafish embryos (Danio rerio) heterozygous for the scn1Lab mutation (scn1Lab+/−) were backcrossed with Tupfel longfin wildtype (WT scn1Lab+/+). Adult zebrafish were housed at 28.0° C., on a 14/10 hour light/dark cycle under standard aquaculture conditions. Fertilized eggs were collected via natural spawning. Anaesthetized fish (tricaine 0.02%) were fin-clipped and genotyped by PCR. After genotyping, samples were purified (MinElute PCR Purification Kit) and sequenced by LGC Genomics. Age-matched Tupfel longfin wildtype larvae were used as control group (WT scn1Lab+/+).
(§2) To evaluate the locomotor activity of homozygous scn1Lab−/− mutants and control WT scn1Lab+/+, zebrafish larvae were placed in a 96-well plate in 100 μL of embryo medium from 4 to 8 dpf. Each day the larvae were tracked in an automated tracking device (ZebraBox™ apparatus; Viewpoint, Lyon, France) for 10 min after 30 min habituation (100-second integration interval). All recordings were performed at the same time during daytime period. The total distance in large movements was recorded and quantified using ZebraLab™ software (Viewpoint, Lyon, France). Data were pooled together from at least three independent experiments with at least 24 larvae per condition.
(§3) Scn1Lab−/− mutants and WT scn1Lab+/+ larvae were arrayed in the same plate and treated at 6 days post fertilization (dpf) with fenfluramine (25 μM), functional analogs (at their MTC) or VHC in individual wells of a 96-well plate. After incubation at 28° C. on a 14/10 hour light/dark cycle and 30-min chamber habituation 6 and 7 dpf larvae were tracked for locomotor activity for 10 min (100-second integration interval) under dark conditions. An incubation time of 1.5 hours is further referred as short treatment (6 dpf). Furthermore these larvae were analyzed after more than 22 hours incubation (7 dpf), i.e. long treatment. The total locomotor activity was quantified using the parameter lardist and plotted in cm. Data were pooled together from two (5-HT1B-, 5-HT1F-, 5-HT3-, 5-HT4-, 5-HT5A-, 5-HT6-agonist and all antagonists except 5-HT1B- and 5-HT7-antagonists) or three (fenfluramine, 5-HT1A-, 5-HT1D-, 5-HT1E-, 5-HT2A-, 5-HT2B-, and 5-HT2C-agonist) independent experiments with at least 9 larvae per treatment condition.

[2] = system: WT scn1Lab+/+ larvae; assay: Locomotor activity of age-matched wildtype zebrafish larvae; type: in vivo, Danio rerio; conditions: 'with exception of' means the compound did decrease wildtype activity
Experimental: as §1, §2
as §3, with “Data were pooled together from two (5-HT1B-, 5-HT1F-, 5-HT3-, 5-HT4-, 5-HT5A-, 5-HT6-agonist and all antagonists except 5-HT1B- and 5-HT7-antagonists) or three (fenfluramine, 5-HT1A-, 5-HT1D-, 5-HT1E-, 5-HT2A-, 5-HT2B-, and 5-HT2C-agonist) independent experiments with at least 9 larvae per treatment condition.” left out

[3] = system: homozygous scn1Lab−/− mutants; type: in vivo, Danio rerio; conditions: for reduction of epileptiform activity (in words, compared with fenfluramine): long treatment at MTC (5-HT2B-agonist 3.125 μM), at least frequency and mean cumulative duration
Experimental: Epileptiform activity was measured by open-field recordings in the zebrafish larval forebrain at 7 dpf. Homozygous scn1Lab−/− mutants and control WT scn1Lab+/+ were embedded in 2% low-melting-point agarose (Invitrogen) to position a glass electrode into the forebrain. […] Single recordings were performed for 10 min. […] Spontaneous epileptiform events were taken into account when the amplitude exceeded three times the background noise and lasted longer than 50 milliseconds (ms).
Epileptiform activity was measured by open-field recordings in the zebrafish larval forebrain at 7 dpf, as described above. […] Recordings of 7 dpf larvae, from at least 8 scn1Lab−/− mutant larvae were taken per experimental condition. […] Electrographic recordings were quantified for the different treatment conditions.

[4] = system: scn1Lab−/− larvae; assay: Fenfluramine combined with 5-HT subtype antagonists, locomotor activity of scn1Lab-/- larvae; type: in vivo, Danio rerio; conditions: antagonist plus fenfluramine
Experimental: as §3
No highly specific 5-HT1E-antagonist is currently available so it was impossible to explore this 5-HTsubtype receptor in the current assay (Leung, 2009).

[5] = system: Dravet syndrome patients; conditions: Chiron et al. 2011; cited from earlier work
[6] = system: Dravet syndrome patients; conditions: long term treatment with fenfluramine 0.12-0.90 mg/kg/day; Ceulemans et al. 2012; cited from earlier work
[7] = biological target: T1, 5-HT2C receptor (Homo sapiens, UniProt P28335); conditions: cited from earlier work
T1 sequence (P28335 33-458): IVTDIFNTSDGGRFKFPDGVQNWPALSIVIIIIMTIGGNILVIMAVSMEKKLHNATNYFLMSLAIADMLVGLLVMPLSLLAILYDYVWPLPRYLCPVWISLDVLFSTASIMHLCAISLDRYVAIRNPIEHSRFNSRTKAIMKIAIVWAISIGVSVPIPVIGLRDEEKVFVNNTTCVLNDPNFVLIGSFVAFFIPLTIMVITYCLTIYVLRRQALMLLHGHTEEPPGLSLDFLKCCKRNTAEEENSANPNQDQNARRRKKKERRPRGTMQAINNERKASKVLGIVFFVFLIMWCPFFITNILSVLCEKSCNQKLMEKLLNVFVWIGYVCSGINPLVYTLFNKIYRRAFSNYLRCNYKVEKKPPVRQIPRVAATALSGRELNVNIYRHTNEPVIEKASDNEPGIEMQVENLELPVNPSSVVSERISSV

[8] = long treatment, fenfluramine 25 μM, 7 dpf

Structure (SMILES): COc1ccc(CNC(=O)/C=C/c2ccc3[nH]cc(CCN(C)C)c3c2)cc1 [5-HT1D-agonist, 3-[3-(2-Dimethylaminoethyl)-1H-indol-5-yl]-N-(4-methoxybenzyl)acrylamide]
- locomotor-reducing activity of functional analogs [1]: locomotor-reducing activity
- activity in the Zebrafish model of epilepsy [1]: high levels of activity
- locomotor activity in wildtype larvae [2]: did not decrease the locomotor activity
- reduction of epileptiform activity (in words, compared with fenfluramine) ([3]; 7 dpf): comparable effects

Structure (SMILES): CN1CCC(c2c[nH]c3ccc(O)cc23)CC1 [5-HT1E-agonist, 1H-Indol-5-ol, 3-(1-methyl-4-piperidinyl)-]
- locomotor-reducing activity of functional analogs [1]: locomotor-reducing activity
- locomotor activity in wildtype larvae [2]: did not decrease the locomotor activity
- reduction of epileptiform activity (in words, compared with fenfluramine) ([3]; 7 dpf): not able to reduce epileptiform activity

Structure (SMILES): O=C(c1ccc(F)cc1)C1CCN(CCn2c(=O)[nH]c3ccccc3c2=O)CC1 [5-HT2A-antagonist, ketaserine]
- counteraction of the fenfluramine-elicited decrease in locomotor activity, long treatment ([4]; long treatment, p<0.05): not after a long treatment
- effect of antagonist on the fenfluramine-elicited decrease in large movements ([4]; treatment time not stated): not seen

Structure (SMILES): CC(N)Cc1c[nH]c2ccc(OCc3cccs3)cc12 (centres unmarked) [5-HT2B agonist]
- activity in the Zebrafish model of epilepsy [1]: did not show any activity

Structure (SMILES): Cc1nn(C)c(C)c1-c1cccc2c1CC[C@H](N(C)C)C2 [5-HT7-agonist, (2S)-(+)-5-(1,3,5-Trimethylpyrazol-4-yl)-2-(dimethylamino)tetralin]
- locomotor-reducing activity of functional analogs [1]: locomotor-reducing activity
- activity in the Zebrafish model of epilepsy [1]: high levels of activity

Structure (SMILES): NC(=O)N1c2ccccc2C=Cc2ccccc21 [carbamazepine]
- patients with worsening of symptoms [5]: ~60%

Structure (SMILES): O=C1Nc2ccc(Cl)cc2[C@@](C#CC2CC2)(C(F)(F)F)O1 [efavirenz, (4S)-6-chloro-4-(2-cyclopropylethynyl)-4-(trifluoromethyl)-1H-3,1-benzoxazin-2-one]
- inhibition of locomotor activity in mutant fish embryos (Example 2) ([1]; tested at MTC): potent inhibitors
- inhibition of epileptiform activity in mutant fish embryos (Example 2) ([3]; tested at MTC): potent inhibitors

Structure (SMILES): CN1C[C@H](C(=O)N[C@]2(C)O[C@@]3(O)[C@@H]4CCCN4C(=O)[C@H](Cc4ccccc4)N3C2=O)C=C2c3cccc4[nH]cc(c34)C[C@H]21 [ergotamine, (6aR,9R)—N-((2R,5S,10aS,10bS)-5-benzyl-10b-hydroxy-2-methyl-3,6-dioxooctahydro-2H-oxazolo[3,2-a]pyrrolo[2,1-c]pyrazin-2-yl)-7-methyl-4,6,6a,7,8,9-hexahydroindolo[4,3-fg] quinoline-9-carboxamide]
- locomotor-reducing activity of functional analogs [1]: interesting activity
- locomotor-reducing activity of functional analogs ([1]; listed as 5-HT5A-agonist): locomotor-reducing activity
- activity in the Zebrafish model of epilepsy [1]: high levels of activity
- locomotor activity in wildtype larvae [2]: did not decrease the locomotor activity

Structure (SMILES): CCNC(C)Cc1cccc(C(F)(F)F)c1 (centres unmarked) [fenfluramine]
- activity in the Zebrafish model of epilepsy [1]: high levels of activity
- locomotor activity after long treatment ([1]; long treatment (22 h), fenfluramine 25 μM, 7 dpf, p<0.0001): lowers locomotor activity; also recorded: significantly decreased
- reduction of epileptiform activity (in words, compared with fenfluramine) ([3]; 7 dpf): anti-epileptiform activity
- frequency of epileptiform events [3, 8]: 1.7±0.4046 events/10-min recording
- mean cumulative duration of epileptiform events [3, 8]: 200.8±50.38 ms/10-min recording
- mean duration of epileptiform events [3, 8]: 85.11±18.28 ms/10-min recording
- patients seizure-free [6]: 70%

Structure (SMILES): Nc1nnc(-c2cccc(Cl)c2Cl)c(N)n1 [lamotrigine]
- patients with worsening of symptoms [5]: up to 80%

Structure (SMILES): C[C@H]1CNCCc2ccc(Cl)cc21.Cl [lorcaserin, (1R)-8-chloro-1-methyl-2,3,4,5-tetrahydro-1H-3-benzazepine]
- locomotor-reducing activity of functional analogs [1]: locomotor-reducing activity
- activity in the Zebrafish model of epilepsy [1]: high levels of activity
- reduction of epileptiform activity (in words, compared with fenfluramine) ([3]; 7 dpf): comparable effects
- affinity for the 5-HT2C receptor vs. the 5-HT2B [7]: 100 ×

Structure (SMILES): C=CC(N)CCC(=O)O (centres unmarked) [vigabatrin]
- patients with worsening of symptoms [5]: ~60%

— patent publication US20180325909A1, “COMBINATION TREATMENT OF SPECIFIC FORMS OF EPILEPSY” (ZOGENIX INTERNATIONAL LIMITED, priority 2015, published 2018)
